For data set [1], the system named is MIAPaCa-2 human-derived pancreatic cancer cells. The data set is described as follows: In-vivo pharmacodynamic experiment, MIAPaCa-2 subcutaneous xenograft in BALB/c nude mice. Particulars: for TGI (%) / TIC / Tumor volumes (mm^3) (Day 23): Day 23; for Tumor volumes (mm^3) (Day 0): baseline. The source says: Effect Example 4: In-Vivo Pharmacodynamic Experiment
Purpose of the experiment: To evaluate the anti-tumor effect of the test drug in female BALB/c nude mice model subcutaneously xenografted with MIAPaCa-2 human-derived pancreatic cancer cells.
(§1) Experimental operation: BALB/c nude mice, female, 6- to 8-weeks old, weighing about 17.6 g to 21.1 g. Each mouse was subcutaneously inoculated with 5×10^6 MIAPaCa-2 cells (with Matrigel; the volume ratio was 1:1) in the right flank. The administration was initiated when the average tumor volume reached about 100 cubic millimeters. The test compounds were orally administered daily by intragastric injection (6 mice in each group) for a total of 16 or 23 days. Tumor volumes were measured three times a week. The volume was measured in cubic millimeters and calculated by the following formula: tumor volume (mm^3)=½×(a×b^2) (where a represented the long diameter and b represented the short diameter). The anti-tumor efficacy of the compound was evaluated by TGI (%).The calculation formula was as follows: TGI %=(1−T/C)×100% (T and C were the relative tumor volumes (RTV) of a mouse in the treatment group and a mouse in the control group at a specific time point), respectively. Safety was evaluated according to the changes of the body weight of the animals and animal deaths.

A short description of data set [2]: Safety by body weight change and animal deaths in the MIAPaCa-2 xenograft study. Format: in vivo. To be noted: for Weight at the Initiation of Administration: baseline. As for the experimental part: as §1
The mark [3] stands for this setting: oral daily 30 mg/kg (Day 0 to Day 9) + 15 mg/kg (Day 10 to Day 16).
The mark [4] stands for this setting: oral daily 100 mg/kg (Day 0 to Day 9) + 50 mg/kg (Day 10 to Day 16) + 100 mg (Day 17 to Day 23).
[5] abbreviates: 30 mg/kg (Day 0 to Day 9) + 15 mg/kg (Day 10 to Day 16).
The mark [6] stands for this setting: 100 mg/kg (Day 0 to Day 9) + 50 mg/kg (Day 10 to Day 16) + 100 mg (Day 17 to Day 23).

Here are results for one compound from patent US20220064141A1, “BENZOPYRIDONE HETEROCYCLIC COMPOUND AND USE THEREOF” (BrightGene Bio-Medical Technology Co., Ltd., priority 2019, published 2022).

Regarding `C=CC(=O)N1CCN(c2c(C#N)c(=O)n(-c3ccccc3C(C)C)c3cc(-c4c(C)ccc5[nH]ncc45)c(Cl)cc23)[C@@H](C)C1` (single isomer, unassigned) [Compound I-2-2], in data set [1] (setting [3]), the “TGI (%)” value was 36.25%, the TIC was 63.75, the “Tumor volumes (mm^3) (Day 23)” value turned out to be 438.75 mm^3 and the “Tumor volumes (mm^3) (Day 0)” value came out at 100.25 mm^3. In addition, in data set [1] (setting [4]), the “TGI (%)” value was 85.02%, the TIC is recorded as 14.98, the “Tumor volumes (mm^3) (Day 23)” value worked out at 179.60 mm^3 and the “Tumor volumes (mm^3) (Day 0)” value came out at 100.06 mm^3. In addition, in data set [2] (setting [5]), the “Weight Change Rate (%)” value is listed as “+7.53%”, the “Weight on Day 23” value amounted to 21.3 g and the “Weight at the Initiation of Administration” value was found to be 19.8 g. Moreover, in data set [2] (setting [6]), the “Weight Change Rate (%)” value is “+12.32%”, the “Weight on Day 23” value stood at 22.4 g and the “Weight at the Initiation of Administration” value was 20.0 g.
